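Values below derive from 48-hour exposures of cells grown in 96-well plates, with endpoints linearly interpolated between the two concentrations bracketing the appropriate inhibition level. Abbreviation: GI50, concentration required for 50% inhibition of growth.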 The source made the active and inactive calls. Cut-off read from the data, not from the text of the source: active = GI50 up to about 1.1 µM and inactive = higher.
How the values were obtained:
Test in all cases: NCI anticancer screen, dose series, 48 h
[1] = test system: NCI-H23
[2] = test system: SN12C
[3] = test system: U-251
[4] = test system: SK-MEL-5
[5] = test system: HCT-116
[6] = test system: A549
[7] = test system: Hs-578T
[8] = test system: IGROV-1
[9] = test system: NCI/ADR-RES
[10] = test system: SF-539
[11] = test system: K562
[12] = test system: SF-268
[13] = test system: NCI-H460
[14] = test system: MOLT-4
[15] = test system: HL-60
[16] = test system: DU-145
[17] = test system: RXF 393
[18] = test system: HCT-15
[19] = test system: OVCAR-4
[20] = test system: CCRF-CEM

| Structure (SMILES) | GI50 [1] | GI50 [2] | GI50 [3] | GI50 [4] | GI50 [5] | GI50 [6] | GI50 [7] | GI50 [8] | GI50 [9] | GI50 [10] | GI50 [11] | GI50 [12] | GI50 [13] | GI50 [14] | GI50 [15] | GI50 [16] | GI50 [17] | GI50 [18] | GI50 [19] | GI50 [20] |
| --- | --- | --- | --- | --- | --- | --- | --- | --- | --- | --- | --- | --- | --- | --- | --- | --- | --- | --- | --- | --- |
| COC(=O)C1(c2ccc(N(C)C)cc2OC)CCCN(C(=O)Oc2ccccc2[N+](=O)[O-])CCc2c1[nH]c1ccccc21 (configuration not stated) | > 100 µM (inactive) | > 100 µM (inactive) | > 100 µM (inactive) | > 100 µM (inactive) | > 100 µM (inactive) | > 100 µM (inactive) | > 100 µM (inactive) | > 100 µM (inactive) | > 100 µM (inactive) | > 100 µM (inactive) | 78.3 µM (inactive) | > 100 µM (inactive) | > 100 µM (inactive) | 16.9 µM (inactive) | 22.9 µM (inactive) | > 100 µM (inactive) | > 100 µM (inactive) | – | – | – |
| COc1cc(C)cc2c1C(=O)C(NC(C)=O)=CC2=O | > 100 µM (inactive) | > 100 µM (inactive) | > 100 µM (inactive) | > 100 µM (inactive) | > 100 µM (inactive) | > 100 µM (inactive) | 55.1 µM (inactive) | > 100 µM (inactive) | > 100 µM (inactive) | > 100 µM (inactive) | 43.1 µM (inactive) | > 100 µM (inactive) | > 100 µM (inactive) | 28.2 µM (inactive) | 23.3 µM (inactive) | > 100 µM (inactive) | > 100 µM (inactive) | > 100 µM | 24.6 µM (inactive) | 34.3 µM (inactive) |
| O=C1Oc2ccc([N+](=O)[O-])cc2N/C1=C\C(=O)c1ccccc1 | > 100 µM (inactive) | 62.1 µM (inactive) | 78.5 µM (inactive) | > 100 µM (inactive) | > 100 µM (inactive) | > 100 µM (inactive) | > 100 µM (inactive) | > 100 µM (inactive) | > 100 µM (inactive) | – | > 100 µM (inactive) | > 100 µM (inactive) | > 100 µM (inactive) | > 100 µM (inactive) | 62.4 µM (inactive) | > 100 µM (inactive) | > 100 µM (inactive) | > 100 µM | > 100 µM (inactive) | 43.5 µM (inactive) |
| Oc1ccccc1-c1nn2c(CCCCCCCCc3nnc4sc(-c5ccccc5O)nn34)nnc2s1 | 18.8 µM (inactive) | 19.5 µM (inactive) | 12.9 µM (inactive) | 18.3 µM (inactive) | 10.5 µM (inactive) | 6 µM (inactive) | 8.57 µM (inactive) | 4.66 µM (inactive) | 12 µM (inactive) | 8.53 µM (inactive) | 7.6 µM (inactive) | 19 µM (inactive) | 8.05 µM (inactive) | 8.39 µM (inactive) | 1.03 µM (active) | 18 µM (inactive) | 10.2 µM (inactive) | 7.6 µM | 14.1 µM (inactive) | 5.42 µM (inactive) |
| COC(CN(C(C)=O)C1CCC2(SCCS2)c2[nH]c3ccccc3c21)OC (configuration not stated) | > 100 µM (inactive) | > 100 µM (inactive) | > 100 µM (inactive) | > 100 µM (inactive) | > 100 µM (inactive) | > 100 µM (inactive) | 54.6 µM (inactive) | > 100 µM (inactive) | > 100 µM (inactive) | > 100 µM (inactive) | > 100 µM (inactive) | > 100 µM (inactive) | > 100 µM (inactive) | 60.8 µM (inactive) | 89.9 µM (inactive) | > 100 µM (inactive) | 38.6 µM (inactive) | > 100 µM | 62.7 µM (inactive) | > 100 µM (inactive) |
| [N-]=[N+]=Nc1c(C=O)c(=O)n2c3c(cccc13)CCC2 | 4.26 µM (inactive) | 15.4 µM (inactive) | 13.6 µM (inactive) | 13.8 µM (inactive) | 3.15 µM (inactive) | 20.8 µM (inactive) | 15.3 µM (inactive) | 11.9 µM (inactive) | 7.76 µM (inactive) | 16.1 µM (inactive) | 2.82 µM (inactive) | 14.4 µM (inactive) | 21.2 µM (inactive) | 1.24 µM (inactive) | 0.608 µM (active) | 5.15 µM (inactive) | 1.76 µM (inactive) | 3.27 µM | 2.24 µM (inactive) | 0.778 µM (active) |
| CN1CC=C(c2cccn2C)CC1 | > 100 µM (inactive) | > 100 µM (inactive) | > 100 µM (inactive) | > 100 µM (inactive) | > 100 µM (inactive) | > 100 µM (inactive) | > 100 µM (inactive) | > 100 µM (inactive) | > 100 µM (inactive) | – | > 100 µM (inactive) | > 100 µM (inactive) | – | > 100 µM (inactive) | > 100 µM (inactive) | > 100 µM (inactive) | > 100 µM (inactive) | > 100 µM | > 100 µM (inactive) | > 100 µM (inactive) |
| O=c1ccn(CC2(CO)CC(Cc3ccccc3)C2)c(=O)[nH]1 (configuration not stated) | > 100 µM (inactive) | > 100 µM (inactive) | > 100 µM (inactive) | > 100 µM (inactive) | > 100 µM (inactive) | > 100 µM (inactive) | > 100 µM (inactive) | > 100 µM (inactive) | > 100 µM (inactive) | > 100 µM (inactive) | > 100 µM (inactive) | > 100 µM (inactive) | > 100 µM (inactive) | > 100 µM (inactive) | > 100 µM (inactive) | > 100 µM (inactive) | > 100 µM (inactive) | > 100 µM | > 100 µM (inactive) | > 100 µM (inactive) |
| CCCCOP(C)(=O)C(NC(=O)OCC)(C(F)(F)F)C(F)(F)F (configuration not stated) | > 100 µM (inactive) | > 100 µM (inactive) | > 100 µM (inactive) | > 100 µM (inactive) | > 100 µM (inactive) | > 100 µM (inactive) | > 100 µM (inactive) | > 100 µM (inactive) | > 100 µM (inactive) | > 100 µM (inactive) | > 100 µM (inactive) | > 100 µM (inactive) | > 100 µM (inactive) | > 100 µM (inactive) | > 100 µM (inactive) | > 100 µM (inactive) | > 100 µM (inactive) | > 100 µM | > 100 µM (inactive) | > 100 µM (inactive) |
| O=c1cnn(C2OC(CO)C(O)C2O)c(=S)[nH]1 (configuration not stated) | > 94 µM (inactive) | > 82 µM (inactive) | 3.03 µM (inactive) | > 55.5 µM (inactive) | 1.67 µM (inactive) | 2.15 µM (inactive) | > 100 µM (inactive) | 28.7 µM (inactive) | > 79.3 µM (inactive) | 66.5 µM (inactive) | 0.589 µM (active) | 11.1 µM (inactive) | 0.316 µM (active) | 0.938 µM (active) | 2.05 µM (inactive) | 9.4 µM (inactive) | > 100 µM (inactive) | 2.09 µM | > 100 µM (inactive) | 2.52 µM (inactive) |
| O=C1C(Cl)=C(N2CCC[C@H]2CO)C(=O)c2c(O)ccc(O)c21 | 2.29 µM (inactive) | 1.71 µM (inactive) | > 10 µM (inactive) | 1.73 µM (inactive) | 1.64 µM (inactive) | 8.2 µM (inactive) | 2.26 µM (inactive) | 4.95 µM (inactive) | 2 µM (inactive) | > 10 µM (inactive) | 0.425 µM (active) | 3.74 µM (inactive) | 8.63 µM (inactive) | 0.337 µM (active) | 0.0724 µM (active) | 4.38 µM (inactive) | 1.99 µM (inactive) | 1.95 µM | 2.16 µM (inactive) | 0.22 µM (active) |
| O=P1(N2CCOCC2)OCCO1 | > 100 µM (inactive) | > 100 µM (inactive) | > 100 µM (inactive) | > 100 µM (inactive) | > 100 µM (inactive) | > 100 µM (inactive) | > 100 µM (inactive) | > 100 µM (inactive) | > 100 µM (inactive) | – | > 100 µM (inactive) | > 100 µM (inactive) | > 100 µM (inactive) | > 100 µM (inactive) | > 100 µM (inactive) | > 100 µM (inactive) | > 100 µM (inactive) | > 100 µM | > 100 µM (inactive) | > 100 µM (inactive) |
| CCOC(=O)/C(C(=O)Nc1ccc(Cl)cc1)=C(/N)N1CCCC1 | > 100 µM (inactive) | > 100 µM (inactive) | > 100 µM (inactive) | – | 94 µM (inactive) | > 100 µM (inactive) | > 100 µM (inactive) | 54.2 µM (inactive) | > 100 µM (inactive) | > 100 µM (inactive) | 66.7 µM (inactive) | > 100 µM (inactive) | > 100 µM (inactive) | 71.6 µM (inactive) | > 100 µM (inactive) | > 100 µM (inactive) | > 100 µM (inactive) | > 100 µM | 69.3 µM (inactive) | > 100 µM (inactive) |
| Cc1ccc2c(O)cc(-c3cc(C)sc3C)nc2n1 | 2.25 µM (inactive) | 6.44 µM (inactive) | 3.69 µM (inactive) | 0.708 µM (active) | 3.84 µM (inactive) | 3.94 µM (inactive) | 2.47 µM (inactive) | 3.36 µM (inactive) | 1.62 µM (inactive) | 2.3 µM (inactive) | 2.94 µM (inactive) | 6.04 µM (inactive) | 4.21 µM (inactive) | 4.14 µM (inactive) | 1.53 µM (inactive) | 3.99 µM (inactive) | 2.81 µM (inactive) | 1.46 µM | > 36.6 µM (inactive) | 2.53 µM (inactive) |
| CCCCCc1cccc(=O)o1 | > 100 µM (inactive) | > 100 µM (inactive) | > 100 µM (inactive) | > 100 µM (inactive) | > 100 µM (inactive) | > 100 µM (inactive) | > 100 µM (inactive) | > 100 µM (inactive) | > 100 µM (inactive) | > 100 µM (inactive) | > 100 µM (inactive) | > 100 µM (inactive) | > 100 µM (inactive) | > 100 µM (inactive) | > 100 µM (inactive) | > 100 µM (inactive) | > 100 µM (inactive) | > 100 µM | > 100 µM (inactive) | > 100 µM (inactive) |

— ChEMBL document CHEMBL1201862, “PubChem BioAssay data set” (2004)
